Data published in patent US11596632B2, “JAK1 pathway inhibitors for the treatment of gastrointestinal disease” (Incyte Corporation, priority 2018, dated 2023).

Key:
JAK2 (a.a. 828-1132) = JAK2 (a.a. 828-1132) (Homo sapiens (Human), UniProt O60674); assay: In vitro JAK kinase assay (HTRF), JAK2 relative to JAK1; assay type: biochemical; conditions: IC50 ratio, 1 mM ATP
Description: (§1) The catalytic activity of JAK1, JAK2 or JAK3 was assayed by measuring the phosphorylation of a biotinylated peptide. The phosphorylated peptide was detected by homogenous time resolved fluorescence (HTRF). […] Reactions are carried out at room temperature for 1 hour and then stopped with 20 μL 45 mM EDTA, 300 nM SA-APC, 6 nM Eu-Py20 in assay buffer (Perkin Elmer, Boston, Mass.). Binding to the Europium labeled antibody takes place for 40 minutes and HTRF signal was measured on a Fusion plate reader (Perkin Elmer, Boston, Mass.).

[1] = target: human JAK1 (a.a. 837-1142) (Homo sapiens (Human), UniProt P23458); assay: In vitro JAK kinase assay (HTRF), JAK1; assay type: biochemical; conditions: 1 mM ATP
Description: as §1

[2] = test system: oxazolone-induced colitis in BALB/c mice; conditions: published results (Beattie et al); cited from earlier work

JAK2 (a.a. 828-1132), sequence (O60674 828-1132): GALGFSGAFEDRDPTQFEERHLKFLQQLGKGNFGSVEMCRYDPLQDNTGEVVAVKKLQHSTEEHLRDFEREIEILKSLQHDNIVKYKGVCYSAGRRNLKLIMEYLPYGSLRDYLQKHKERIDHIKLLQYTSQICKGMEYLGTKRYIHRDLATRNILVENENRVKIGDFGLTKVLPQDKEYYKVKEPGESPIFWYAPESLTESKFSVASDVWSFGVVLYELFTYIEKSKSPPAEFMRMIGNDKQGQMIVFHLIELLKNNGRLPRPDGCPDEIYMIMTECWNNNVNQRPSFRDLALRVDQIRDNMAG
human JAK1 (a.a. 837-1142), sequence (P23458 837-1142): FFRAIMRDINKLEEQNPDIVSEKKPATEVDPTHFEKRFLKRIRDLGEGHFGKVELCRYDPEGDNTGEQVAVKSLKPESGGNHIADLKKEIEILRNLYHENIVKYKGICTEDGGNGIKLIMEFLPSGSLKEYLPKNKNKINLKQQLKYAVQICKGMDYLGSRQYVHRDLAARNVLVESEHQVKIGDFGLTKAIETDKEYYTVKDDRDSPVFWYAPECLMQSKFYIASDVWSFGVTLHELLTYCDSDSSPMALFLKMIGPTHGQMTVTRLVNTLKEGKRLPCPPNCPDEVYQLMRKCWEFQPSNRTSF

SMILES | JAK2/JAK1 (JAK2 (a.a. 828-1132)) | IC50 [1] | effect on oxazolone-induced colitis [2]
N#CCC(C1CCN(c2cccc(Cl)n2)C1)n1cc(-c2ncnc3[nH]ccc23)cn1 (single isomer, unassigned) [Compound 6, 3-[1-(6-chloropyridin-2-yl)pyrrolidin-3-yl]-3-[4-(7H-pyrrolo[2,3-d]pyrimidin-4-yl)-1H-pyrazol-1-yl]propanenitrile] | >10 | < 0.01 µM | 
N#CCC1(n2cc(-c3ncnc4[nH]ccc34)cn2)CN(C2CCN(C(=O)Nc3ccc(F)cc3C(F)(F)F)CC2)C1 [Compound 2, 4-{3-(Cyanomethyl)-3-[4-(7H-pyrrolo[2,3-d]pyrimidin-4-yl)-1H-pyrazol-1-yl]azetidin-1-yl}-N-[4-fluoro-2-(trifluoromethyl)phenyl]piperidine-1-carboxamide] | >10 | < 0.01 µM | 
N#CCC1(n2cc(-c3ncnc4[nH]ccc34)cn2)CN(C2CCN(C(=O)c3ccnc(C(F)(F)F)n3)CC2)C1 [Compound 3, [3-[4-(7H-pyrrolo[2,3-d]pyrimidin-4-yl)-1H-pyrazol-1-yl]-1-(1-{[2-(trifluoromethyl)pyrimidin-4-yl]carbonyl}piperidin-4-yl)azetidin-3-yl]acetonitrile] | >10 | < 0.01 µM | 
C[C@@H](O)c1nc2cnc3ccsc3c2n1[C@H]1CC[C@H](CC#N)OC1 [Compound 5, ((2R,5S)-5-{2-[(1R)-1-hydroxyethyl]-1H-imidazo[4,5-d]thieno[3,2-b]pyridin-1-yl}tetrahydro-2H-pyran-2-yl)acetonitrile] | >10 | < 0.1 µM | 
N#CCC(C1CCN(c2nc3cccnc3o2)C1)n1cc(-c2ncnc3[nH]ccc23)cn1 (stereo not drawn) [Compound 7, 3-(1-[1,3]oxazolo[5,4-b]pyridin-2-ylpyrrolidin-3-yl)-3-[4-(7H-pyrrolo[2,3-d]pyrimidin-4-yl)-1H-pyrazol-1-yl]propanenitrile] | >10 | < 0.01 µM | 
N#CCC(CN1CCN(C(=O)c2ccc(C#N)cc2F)CC1)n1ccc(-c2ncnc3[nH]ccc23)c1 (stereo not drawn) [Compound 9, 4-[(4-{3-cyano-2-[3-(7H-pyrrolo[2,3-d]pyrimidin-4-yl)-1H-pyrrol-1-yl]propyl}piperazin-1-yl)carbonyl]-3-fluorobenzonitrile] | >10 | < 0.01 µM | 
N#CC[C@]1(n2cc(-c3ncnc4[nH]ccc34)cn2)C[C@H](N2CCN(C(=O)c3ccnc(C(F)(F)F)n3)CC2)C1 [Compound 10, [trans-1-[4-(7H-pyrrolo[2,3-d]pyrimidin-4-yl)-1H-pyrazol-1-yl]-3-(4-{[2-(trifluoromethyl)pyrimidin-4-yl]carbonyl}piperazin-1-yl)cyclobutyl]acetonitrile] | >10 | < 0.01 µM | 
N#CCC1(n2cc(-c3ncnc4[nH]ccc34)cn2)CN([C@H]2CC[C@@H](Oc3cc(CCO)nc(C(F)(F)F)n3)CC2)C1 [Compound 18, {1-(cis-4-{[6-(2-hydroxyethyl)-2-(trifluoromethyl)pyrimidin-4-yl]oxy}cyclohexyl)-3-[4-(7H-pyrrolo[2,3-d]pyrimidin-4-yl)-1H-pyrazol-1-yl]azetidin-3-yl}acetonitrile] | >10 | < 0.01 µM | 
C[C@@H]1CCN(C(=O)CC#N)C[C@@H]1N(C)c1ncnc2[nH]ccc12 [tofacitinib] |  |  | inhibits oxazolone-induced colitis

More lines, main results first:

JAK2/JAK1 (JAK2 (a.a. 828-1132)) | IC50 [1] | SMILES | effect on oxazolone-induced colitis [2]
>10 | < 0.01 µM | N#CC[C@]1(n2cc(-c3ncnc4[nH]ccc34)cn2)C[C@H](N2CCC(Oc3cc(CN4CC(O)C4)cc(C(F)(F)F)n3)CC2)C1 [Compound 11, {trans-3-(4-{[4-[(3-hydroxyazetidin-1-yl)methyl]-6-(trifluoromethyl)pyridin-2-yl]oxy}piperidin-1-yl)-1-[4-(7H-pyrrolo[2,3-d]pyrimidin-4-yl)-1H-pyrazol-1-yl]cyclobutyl}acetonitrile] | 
>10 | < 0.01 µM | N#CC[C@]1(n2cc(-c3ncnc4[nH]ccc34)cn2)C[C@H](N2CCC(Oc3cc(CN4CCC[C@H]4CO)cc(C(F)(F)F)n3)CC2)C1 [Compound 12, {trans-3-(4-{[4-{[(2S)-2-(hydroxymethyl)pyrrolidin-1-yl]methyl}-6-(trifluoromethyl)pyridin-2-yl]oxy}piperidin-1-yl)-1-[4-(7H-pyrrolo[2,3-d]pyrimidin-4-l)-1H-pyrazol-1-yl]cyclobutyl}acetonitrile] | 
>10 | < 0.01 µM | N#CC[C@]1(n2cc(-c3ncnc4[nH]ccc34)cn2)C[C@H](N2CCC(Oc3cc(CN4CCC[C@@H]4CO)cc(C(F)(F)F)n3)CC2)C1 [Compound 13, {trans-3-(4-{[4-{[(2R)-2-(hydroxymethyl)pyrrolidin-1-yl]methyl}-6-(trifluoromethyl)pyridin-2-yl]oxy}piperidin-1-yl)-1-[4-(7H-pyrrolo[2,3-d]pyrimidin-4-yl)-1H-pyrazol-1-yl]cyclobutyl}acetonitrile] | 
>10 | < 0.01 µM | CCNCc1cc(O[C@H]2CC[C@@H](N3CC(CC#N)(n4cc(-c5ncnc6[nH]ccc56)cn4)C3)CC2)nc(C(F)(F)F)c1 [Compound 19, {1-(cis-4-{[4-[(ethylamino)methyl]-6-(trifluoromethyl)pyridin-2-yl]oxy}cyclohexyl)-3-[4-(7H-pyrrolo[2,3-d]pyrimidin-4-yl)-1H-pyrazol-1-yl]azetidin-3-yl}acetonitrile] | 
>10 | < 0.01 µM | CC(C)(O)c1cc(O[C@H]2CC[C@@H](N3CC(CC#N)(n4cc(-c5ncnc6[nH]ccc56)cn4)C3)CC2)nc(C(F)(F)F)c1 [Compound 20, {1-(cis-4-{[4-(1-hydroxy-1-methylethyl)-6-(trifluoromethyl)pyridin-2-yl]oxy}cyclohexyl)-3-[4-(7H-pyrrolo[2,3-d]pyrimidin-4-yl)-1H-pyrazol-1-yl]azetidin-3-yl}acetonitrile] | 
>10 | < 0.01 µM | N#CCC1(n2cc(-c3ncnc4[nH]ccc34)cn2)CN([C@H]2CC[C@@H](Oc3cc(CN4CC[C@@H](O)C4)cc(C(F)(F)F)n3)CC2)C1 [Compound 21, {1-(cis-4-{[4-{[(3R)-3-hydroxypyrrolidin-1-yl]methyl}-6-(trifluoromethyl)pyridin-2-yl]oxy}cyclohexyl)-3-[4-(7H-pyrrolo[2,3-d]pyrimidin-4-yl)-1H-pyrazol-1-yl]azetidin-3-yl}acetonitrile] | 
>10 | < 0.01 µM | N#CCC1(n2cc(-c3ncnc4[nH]ccc34)cn2)CN([C@H]2CC[C@@H](Oc3cc(CN4CC[C@H](O)C4)cc(C(F)(F)F)n3)CC2)C1 [Compound 22, {1-(cis-4-{[4-{[(3S)-3-hydroxypyrrolidin-1-yl]methyl}-6-(trifluoromethyl)pyridin-2-yl]oxy}cyclohexyl)-3-[4-(7H-pyrrolo[2,3-d]pyrimidin-4-yl)-1H-pyrazol-1-yl]azetidin-3-yl}acetonitrile] | 
>10 | < 0.01 µM | C[C@@H](CO)NCc1cc(OC2CCN([C@H]3C[C@](CC#N)(n4cc(-c5ncnc6[nH]ccc56)cn4)C3)CC2)nc(C(F)(F)F)c1 [Compound 23] | 
>10 | < 0.01 µM | C[C@@H](O)CNCc1cc(OC2CCN([C@H]3C[C@](CC#N)(n4cc(-c5ncnc6[nH]ccc56)cn4)C3)CC2)nc(C(F)(F)F)c1 [Compound 24, {trans-3-(4-{[4-({[(2R)-2-hydroxypropyl]amino}methyl)-6-(trifluoromethyl)pyridin-2-yl]oxy}piperidin-1-yl)-1-[4-(7H-pyrrolo[2,3-d]pyrimidin-4-yl)-1H-pyrazol-1-yl]cyclobutyl}acetonitrile] | 
>10 | < 0.01 µM | C[C@H](O)CNCc1cc(OC2CCN([C@H]3C[C@](CC#N)(n4cc(-c5ncnc6[nH]ccc56)cn4)C3)CC2)nc(C(F)(F)F)c1 [Compound 25, {trans-3-(4-{[4-({[(2S)-2-hydroxypropyl]amino}methyl)-6-(trifluoromethyl)pyridin-2-yl]oxy}piperidin-1-yl)-1-[4-(7H-pyrrolo[2,3-d]pyrimidin-4-yl)-1H-pyrazol-1-yl]cyclobutyl}acetonitrile] | 
>10 | < 0.01 µM | N#CC[C@]1(n2cc(-c3ncnc4[nH]ccc34)cn2)C[C@H](N2CCC(Oc3cc(CCO)cc(C(F)(F)F)n3)CC2)C1 [Compound 26, {trans-3-(4-{[4-(2-hydroxyethyl)-6-(trifluoromethyl)pyridin-2-yl]oxy}piperidin-1-yl)-1-[4-(7H-pyrrolo[2,3-d]pyrimidin-4-yl)-1H-pyrazol-1-yl]cyclobutyl}acetonitrile] | 
